Results from ChEMBL document CHEMBL3393055, “6,6-Fused heterocyclic ureas as highly potent TRPV1 antagonists” (Bioorg Med Chem Lett, 2015).

The compounds below were run against T1, Transient receptor potential cation channel subfamily V member 1 (Homo sapiens, UniProt Q8NER1) (assay: Antagonist activity at human TRPV1 assessed as inhibition of NADA-induced effect at 1 uM by FLIPR assay). Conditions: not given; call rule not given here.
T1 sequence (Q8NER1 whole entry): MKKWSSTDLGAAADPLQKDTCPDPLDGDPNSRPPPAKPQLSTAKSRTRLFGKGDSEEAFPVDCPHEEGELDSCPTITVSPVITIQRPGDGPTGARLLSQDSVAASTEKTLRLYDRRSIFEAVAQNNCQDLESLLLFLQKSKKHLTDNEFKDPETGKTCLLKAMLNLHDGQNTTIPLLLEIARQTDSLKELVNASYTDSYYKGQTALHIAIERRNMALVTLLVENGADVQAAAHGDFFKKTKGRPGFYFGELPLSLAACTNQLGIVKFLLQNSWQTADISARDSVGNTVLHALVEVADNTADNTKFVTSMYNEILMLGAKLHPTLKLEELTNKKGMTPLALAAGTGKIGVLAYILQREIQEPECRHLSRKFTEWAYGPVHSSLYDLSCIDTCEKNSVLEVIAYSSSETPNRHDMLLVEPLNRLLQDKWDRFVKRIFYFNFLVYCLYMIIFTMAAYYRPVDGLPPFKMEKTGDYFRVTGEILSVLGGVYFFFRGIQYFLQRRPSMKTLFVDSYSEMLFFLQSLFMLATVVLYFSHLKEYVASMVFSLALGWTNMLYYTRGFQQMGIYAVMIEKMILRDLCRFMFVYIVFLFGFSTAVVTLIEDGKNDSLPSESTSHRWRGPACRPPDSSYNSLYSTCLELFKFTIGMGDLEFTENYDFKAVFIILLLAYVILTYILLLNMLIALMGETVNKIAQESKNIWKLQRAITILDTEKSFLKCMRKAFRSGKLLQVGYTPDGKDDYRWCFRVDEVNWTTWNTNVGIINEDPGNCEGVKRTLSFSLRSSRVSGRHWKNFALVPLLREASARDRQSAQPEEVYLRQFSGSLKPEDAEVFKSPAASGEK

SMILES	Ki [nM]
CC1CCN(c2nc(C(F)(F)F)ccc2CNC(=O)Nc2cccc3cnccc23)CC1	0.02

What follows are compounds tested against T1, Transient receptor potential cation channel subfamily V member 1 (assay: Antagonist activity at human TRPV1 assessed as inhibition of capsaicin-induced effect by FLIPR assay). Conditions: not given.

SMILES	Ki
CC1CCN(c2nc(C(F)(F)F)ccc2CNC(=O)Nc2nccc3cccnc23)CC1	Not Active
CC1CCN(c2nc(C(F)(F)F)ccc2CNC(=O)Nc2ccc3ncncc3c2)CC1	Agonist
CC1CCN(c2nc(C(F)(F)F)ccc2CNC(=O)Nc2ccc3ccccc3n2)CC1	Not Active
CC1CCN(c2nc(C(F)(F)F)ccc2CNC(=O)Nc2ccnc3ccccc23)CC1	Agonist
CC1CCN(c2nc(C(F)(F)F)ccc2CNC(=O)Nc2nccc3ccccc23)CC1	Not Active

Same assay, conditions: read-out: Ki

SMILES	Ki [nM]
CC1CCN(c2nc(C(F)(F)F)ccc2CNC(=O)Nc2cccc3nccnc23)CC1	48.1
CC1CCN(c2nc(C(F)(F)F)ccc2CNC(=O)Nc2ccc3cnccc3c2)CC1	7.2
CC1CCN(c2nc(C(F)(F)F)ccc2CNC(=O)Nc2ccc3cnncc3c2)CC1	8.9
CC1CCN(c2nc(C(F)(F)F)ccc2CNC(=O)Nc2ccc3cncnc3c2)CC1	7.8
CC1CCN(c2nc(C(F)(F)F)ccc2CNC(=O)Nc2cnc3ccccc3c2)CC1	9.5
CC1CCN(c2nc(C(F)(F)F)ccc2CNC(=O)Nc2ccc3cccnc3c2)CC1	7.1

Continued, values first:

Ki [nM]	SMILES
1.8	CC1CCN(c2nc(C(F)(F)F)ccc2CNC(=O)Nc2cncc3ccccc23)CC1
18.3	O=C(NCc1ccc(C(F)(F)F)cc1)Nc1cccc2cnccc12
8.4	CC1CCN(c2nc(C(F)(F)F)ccc2CNC(=O)Nc2ccc3ccncc3c2)CC1
0.4	CC1CCN(c2nc(C(F)(F)F)ccc2CNC(=O)Nc2cccc3ccncc23)CC1
0.7	CC1CCN(c2nc(C(F)(F)F)ccc2CNC(=O)Nc2cccc3ncccc23)CC1
91.6	CC1CCN(c2nc(C(F)(F)F)ccc2CNC(=O)Nc2cccc3cccnc23)CC1
13.8	CC(C)(C)c1ccc(CNC(=O)Nc2cccc3cnccc23)cc1
0.2	CC1CCN(c2nc(C(F)(F)F)ccc2CNC(=O)Nc2cccc3cnccc23)CC1

Each compound was assayed on Mus musculus (assay: Analgesic activity in formalin-induced mouse pain model at 0.3 mg/kg, po). Conditions: not given.
Type: functional

SMILES	MPE [%]
CC1CCN(c2nc(C(F)(F)F)ccc2CNC(=O)Nc2cccc3cnccc23)CC1	18

These compounds were tested against T1, Transient receptor potential cation channel subfamily V member 1 (assay: Antagonist activity at human TRPV1 assessed as inhibition of capsaicin-induced effect at 1 uM by FLIPR assay). Conditions: not given.

SMILES	inhibition [%]
CC1CCN(c2nc(C(F)(F)F)ccc2CNC(=O)Nc2ccc3ncccc3c2)CC1	40
CC1CCN(c2nc(C(F)(F)F)ccc2CNC(=O)Nc2cc3ccccc3cn2)CC1	10

Each compound was assayed against T1, Transient receptor potential cation channel subfamily V member 1 (assay: Antagonist activity at human TRPV1 assessed as inhibition of pH-induced effect at 1 uM by FLIPR assay). Conditions: not given.

SMILES	IC50
CC1CCN(c2nc(C(F)(F)F)ccc2CNC(=O)Nc2cccc3cnccc23)CC1	Not Active

These compounds were tested on Mus musculus (assay: Analgesic activity in formalin-induced mouse pain model at 10 mg/kg, po). Conditions: not given.
Type: functional

SMILES	MPE [%]
CC1CCN(c2nc(C(F)(F)F)ccc2CNC(=O)Nc2cccc3cnccc23)CC1	73

The compounds below were run against T1, Transient receptor potential cation channel subfamily V member 1 (assay: Antagonist activity at human TRPV1 assessed as inhibition of 45 degC heat-induced effect at 1 uM by FLIPR assay). Conditions: not given.

SMILES	IC50 [nM]
CC1CCN(c2nc(C(F)(F)F)ccc2CNC(=O)Nc2cccc3cnccc23)CC1	0.55
